# Test results published in patent US11839658B2, “Aminoglycoside derivatives and nano-assemblies thereof, including those with quorum sensing inhibitory function” (priority 2017, dated 2023).
# What was measured:
# [1] = Dynamic light scattering (DLS): zeta-potential, mean diameter, PDI of nano-assemblies; format: physicochemical
# [2] = tested on: Pyocyanin released from PA14 bacteria (wild type); assay: Pyocyanin assay on Pseudomonas aeruginosa; format: cell-based; conditions: 18 μg/mL Farnesal or Farnesol, 16 h, n=9
# Procedure: Pyocyanin assay was used to quantify the amount of Pyocyanin molecule released from PA14 bacteria (wild type) which were grown aerobically for 16 hours. The Pyocyanin assay was performed as follows:
# A single colony of PA14 was removed from agar plates after 16 hours of growth at 37° C. and transferred into 25 mL Erlenmeyer flasks with 10 mL of PPGAS (proteose peptone glucose ammonium salt medium which is composed of (1 g/L NH4Cl, 1.5 g/L KCl, 19 g/L Tris-HCl, 10 g/L peptone, glucose 5 g/L and 0.1 g/L MgSO4·7H2O, the medium was adjusted to pH 7.4, and sterilized before use). Following 16 hours of aerobic growth with shaking at 200 rpm and 37° C., cultures were centrifuged at 7.450 g, washed twice with 10 mL of fresh PPGAS medium, and resuspended to a final volume of 5 mL solution. Cultures were then diluted to a final OD600 of 0.02 and distributed into 24 well-plates, 1.5 mL each well.
# Compounds Farnesal and Farnesol were diluted in DMSO, then added to wells containing PA14 bacteria, in 1:100 dilutions with a final DMSO concentration of 1% (v/v), so that the final concentration of Farnesal was 18 μg/mL, and of Farnesol was 18 μg/mL. […]
# All cultures were incubated for an additional 16 h under aerobic conditions as mentioned above. […] OD520 was measured in the aqueous phase. […]
# [3] = tested on: 24 hours old PA14 biofilm; assay: Minimum Biofilm Eradicating Concentration (MBEC) assay; format: cell-based, Pseudomonas aeruginosa; conditions: 24 h old PA14 biofilm treated 24 hours
# Procedure: Minimum Biofilm Eradicating Concentration (MBEC) assay was used to determine the minimum concentration of active agents at which a 24 hours old PA14 biofilm is completely eradicated. The MBEC assay was performed as follows: […]
# The 96 well-plates were then kept at 37° C. without shaking for 24 hours to allow the forming of biofilm. Afterwards, the planktonic bacteria were removed, and the 24 hours old biofilm was washed twice with PBS, then fed with fresh PPGAS medium, and ready for the assay. […]
# All cultures were incubated for an additional 24 hours at 37° C. without shaking. […] All cultures were then measured OD650, and the biofilm is considered to be completely eradicated once the resulting OD650 is equal or lower than OD650 of PPGAS medium.
# [4] = tested on: E. coli; conditions: literature value; cited from earlier work
# [5] = tested on: P. aeruginosa strain PA14 (wild type); assay: MIC assay against Pseudomonas aeruginosa; format: cell-based; conditions: PA14, read-out: MIC-90 against PA14
# Procedure: The minimum inhibitory concentration (MIC) of the of the tobramycin containing nano-assemblies of example 2 against the P. aeruginosa strain PA14 (wild type) was tested and compared to known MIC values of tobramycin.
SMILES,zeta-potential [1] [mV],percentage inhibition of released Pyocyanin vs PA14 wt control [2] [%],Tobramycin concentration needed for complete biofilm eradication (MBEC) [3] [µg/mL],MIC-90 against E. coli (Dienstag and Neu) [4] [µg/mL],MIC90 [5] [µg/mL]
CC(C)=CCCC(C)=CCCC(C)=CC=O [Farnesal],−33.8±0.5,5.85±3.10,–,–,–
CC(C)=CCCC(C)=CCCC(C)=CCO [Farnesol],–,12.29±7.35,–,–,–
NC[C@H]1O[C@H](O[C@H]2[C@H](O)[C@@H](O[C@H]3O[C@H](CO)[C@@H](O)[C@H](N)[C@H]3O)[C@H](N)C[C@@H]2N)[C@H](N)C[C@@H]1O [Tobramycin],–,–,≥ 100,6.25,6.25 to 12.5
